Results published in ChEMBL document CHEMBL1671687, “Enhancement of biofilm formation by subinhibitory concentrations of macrolides in icaADBC-positive and -negative clinical isolates of Staphylococcus epidermidis” (2010).
Calls of active or inactive are those of the source. No cut-off for these calls is given here.

Tests used:
[1] = system: Staphylococcus epidermidis; assay: Antimicrobial activity against compound pretreated Staphylococcus epidermidis biofilms; assay type: functional
[2] = system: Staphylococcus epidermidis; assay: Upregulation of sarA gene expression in Staphylococcus epidermidis SW029 at 8 ug/ml after 6 hrs by RT-PCR relative to untreated control; assay type: functional
[3] = system: Staphylococcus epidermidis; assay: Enhancement of biofilm formation Staphylococcus epidermidis SW088 at 1/4 X MIC by microtiter plate assay; assay type: functional
[4] = system: Staphylococcus epidermidis; assay: Enhancement of biofilm formation Staphylococcus epidermidis SW071 at 1/4 X MIC by microtiter plate assay; assay type: functional
[5] = system: Staphylococcus epidermidis; assay: Enhancement of biofilm formation Staphylococcus epidermidis SW058 expressing icaA gene at 1/4 X MIC by microtiter plate assay; assay type: functional
[6] = system: Staphylococcus epidermidis; assay: Upregulation of sarA gene expression in Staphylococcus epidermidis SW029 at 8 ug/ml after 24 hrs by RT-PCR relative to untreated control; assay type: functional
[7] = system: Staphylococcus epidermidis; assay: Enhancement of biofilm formation Staphylococcus epidermidis SW115 at 1/4 X MIC by microtiter plate assay; assay type: functional
[8] = system: Staphylococcus epidermidis; assay: Enhancement of biofilm formation Staphylococcus epidermidis SW082 at 1/4 X MIC by microtiter plate assay; assay type: functional
[9] = system: Staphylococcus epidermidis; assay: Enhancement of biofilm formation Staphylococcus epidermidis SW098 expressing icaA gene at 1/4 X MIC by microtiter plate assay; assay type: functional
[10] = system: Staphylococcus epidermidis; assay: Downregulation of sigB gene expression in Staphylococcus epidermidis SW029 at 8 ug/ml after 24 hrs by RT-PCR relative to untreated control; assay type: functional
[11] = system: Staphylococcus epidermidis; assay: Upregulation of sigB gene expression in Staphylococcus epidermidis SW029 at 8 ug/ml after 6 hrs by RT-PCR relative to untreated control; assay type: functional
[12] = system: Staphylococcus epidermidis; assay: Upregulation of icaA gene expression in Staphylococcus epidermidis SW029 at 8 ug/ml after 24 hrs by RT-PCR relative to untreated control; assay type: functional
[13] = system: Staphylococcus epidermidis; assay: Antimicrobial activity against Staphylococcus epidermidis lacking compound-induced biofilms; assay type: functional
[14] = system: Staphylococcus epidermidis; assay: Enhancement of biofilm formation Staphylococcus epidermidis SW029 expressing icaA gene at 1/4 X MIC by microtiter plate assay; assay type: functional
[15] = system: Staphylococcus epidermidis; assay: Enhancement of biofilm formation Staphylococcus epidermidis SW021 at 1/4 X MIC by microtiter plate assay; assay type: functional
[16] = system: Staphylococcus epidermidis; assay: Antimicrobial activity against Staphylococcus epidermidis SW036 assessed as enhancement of biofilm formation after 18 hrs by microtiter plate assay; assay type: functional
[17] = system: Staphylococcus epidermidis; assay: Upregulation of atlE gene expression in Staphylococcus epidermidis SW036 at 8 ug/ml after 6 hrs by RT-PCR relative to untreated control; assay type: functional
[18] = system: Staphylococcus epidermidis; assay: Upregulation of atlE gene expression in Staphylococcus epidermidis SW029 at 8 ug/ml after 6 hrs by RT-PCR relative to untreated control; assay type: functional
[19] = system: Staphylococcus epidermidis; assay: Enhancement of biofilm formation Staphylococcus epidermidis SW104 expressing icaA gene at 1/4 X MIC by microtiter plate assay; assay type: functional
[20] = system: Staphylococcus epidermidis; assay: Enhancement of biofilm formation Staphylococcus epidermidis SW126 expressing icaA gene at 1/4 X MIC by microtiter plate assay; assay type: functional
[21] = system: Staphylococcus epidermidis; assay: Enhancement of biofilm formation Staphylococcus epidermidis SW015 at 1/4 X MIC by microtiter plate assay; assay type: functional
[22] = system: Staphylococcus epidermidis; assay: Effect on polysaccharide secretion in Staphylococcus epidermidis SW029 expressing icaA gene at 12 hrs by SEM; assay type: functional, organism-based
[23] = system: Staphylococcus epidermidis; assay: Enhancement of biofilm formation Staphylococcus epidermidis SW085 expressing icaA gene at 1/4 X MIC by microtiter plate assay; assay type: functional
[24] = system: Staphylococcus epidermidis; assay: Antimicrobial activity against Staphylococcus epidermidis SW036; assay type: functional
[25] = system: Staphylococcus epidermidis; assay: Antimicrobial activity against Staphylococcus epidermidis SW029 expressing icaA gene assessed as enhancement of biofilm formation after 18 hrs by microtiter plate assay; assay type: functional
[26] = system: Staphylococcus epidermidis; assay: Upregulation of atlE gene expression in Staphylococcus epidermidis SW029 at 8 ug/ml after 24 hrs by RT-PCR relative to untreated control; assay type: functional
[27] = system: Staphylococcus epidermidis; assay: Antimicrobial activity against Staphylococcus epidermidis SW036 at 1/1024 X MIC; assay type: functional, organism-based
[28] = system: Staphylococcus epidermidis; assay: Upregulation of sarA gene expression in Staphylococcus epidermidis SW036 at 8 ug/ml after 6 hrs by RT-PCR relative to untreated control; assay type: functional
[29] = system: Staphylococcus epidermidis; assay: Antimicrobial activity against Staphylococcus epidermidis SW029 expressing icaA gene assessed as formation of multilayer biofilms at 48 hrs by SEM; assay type: functional, organism-based
[30] = system: Staphylococcus epidermidis; assay: Enhancement of biofilm formation Staphylococcus epidermidis SW120 at 1/4 X MIC by microtiter plate assay; assay type: functional
[31] = system: Staphylococcus epidermidis; assay: Upregulation of fruA gene expression in Staphylococcus epidermidis SW036 at 8 ug/ml after 6 hrs by RT-PCR relative to untreated control; assay type: functional
[32] = system: Staphylococcus epidermidis; assay: Enhancement of biofilm formation Staphylococcus epidermidis SW036 at 1/4 X MIC by microtiter plate assay; assay type: functional
[33] = system: Staphylococcus epidermidis; assay: Enhancement of biofilm formation Staphylococcus epidermidis SW045 expressing icaA gene at 1/4 X MIC by microtiter plate assay; assay type: functional
[34] = system: Staphylococcus epidermidis; assay: Enhancement of biofilm formation Staphylococcus epidermidis SW070 at 1/4 X MIC by microtiter plate assay; assay type: functional
[35] = system: Staphylococcus epidermidis; assay: Upregulation of sigB gene expression in Staphylococcus epidermidis SW036 at 8 ug/ml after 6 hrs by RT-PCR relative to untreated control; assay type: functional
[36] = system: Staphylococcus epidermidis; assay: Enhancement of biofilm formation Staphylococcus epidermidis ATCC 35984 expressing icaA gene at 1/4 X MIC by microtiter plate assay; assay type: functional
[37] = system: Staphylococcus epidermidis; assay: Enhancement of biofilm formation Staphylococcus epidermidis SW032 expressing icaA gene at 1/4 X MIC by microtiter plate assay; assay type: functional
[38] = system: Staphylococcus epidermidis; assay: Antimicrobial activity against compound pretreated Staphylococcus epidermidis assessed as biofilm formation at 1/4 X MIC relative to untreated control; assay type: functional
[39] = system: Staphylococcus epidermidis; assay: Antimicrobial activity against Staphylococcus epidermidis SW029 expressing icaA gene; assay type: functional
[40] = system: Staphylococcus epidermidis; assay: Enhancement of biofilm formation Staphylococcus epidermidis SW027 expressing icaA gene at 1/4 X MIC by microtiter plate assay; assay type: functional
[41] = system: Staphylococcus epidermidis; assay: Antimicrobial activity against Staphylococcus epidermidis SW029 expressing icaA gene assessed as increased biofilm formation at 6 to 12 hrs by CLSM; assay type: functional, organism-based
[42] = system: Staphylococcus epidermidis; assay: Upregulation of pyrR gene expression in Staphylococcus epidermidis SW029 at 8 ug/ml after 6 hrs by RT-PCR relative to untreated control; assay type: functional
[43] = system: Staphylococcus epidermidis; assay: Upregulation of pyrR gene expression in Staphylococcus epidermidis SW036 at 8 ug/ml after 6 hrs by RT-PCR relative to untreated control; assay type: functional
[44] = system: Staphylococcus epidermidis; assay: Enhancement of biofilm formation Staphylococcus epidermidis SW067 expressing icaA gene at 1/4 X MIC by microtiter plate assay; assay type: functional
[45] = system: Staphylococcus epidermidis; assay: Upregulation of fruA gene expression in Staphylococcus epidermidis SW029 at 8 ug/ml after 6 hrs by RT-PCR relative to untreated control; assay type: functional
[46] = system: Staphylococcus epidermidis; assay: Antimicrobial activity against Staphylococcus epidermidis lacking compound-induced biofilms assessed as biofilm formation at 1/4 X MIC relative to untreated control; assay type: functional
[47] = system: Staphylococcus epidermidis; assay: Enhancement of biofilm formation Staphylococcus epidermidis SW061 expressing icaA gene at 1/4 X MIC by microtiter plate assay; assay type: functional
[48] = system: Staphylococcus epidermidis; assay: Enhancement of biofilm formation Staphylococcus epidermidis SW099 at 1/4 X MIC by microtiter plate assay; assay type: functional
[49] = system: Staphylococcus epidermidis; assay: Upregulation of icaA gene expression in Staphylococcus epidermidis SW029 at 8 ug/ml after 6 hrs by RT-PCR relative to untreated control; assay type: functional

CC[C@H]1OC(=O)[C@H](C)[C@@H](O[C@H]2C[C@@](C)(OC)[C@@H](O)[C@H](C)O2)[C@H](C)[C@@H](O[C@@H]2O[C@H](C)C[C@H](N(C)C)[C@H]2O)[C@](C)(O)C[C@@H](C)C(=O)[C@H](C)[C@@H](O)[C@]1(C)O [ERYTHROMYCIN]
MIC [1]: ≥ 32 µg/mL | fold change (FC) [2]: 1.7 | Activity [3]: 163.1% | Activity [4]: 230.4% | Activity [5]: 37.9% | fold change (FC) [6]: 6.9 | Activity [7]: 166.8% | Activity [8]: 58.7% | Activity [9]: 93.9% | fold change (FC) [10]: 0.6 | fold change (FC) [11]: 2 | fold change (FC) [12]: 2.8 | MIC [13]: ≥ 16 µg/mL | Activity [14]: 159.6% | Activity [15]: 34.7% | Activity [16]: 100% | fold change (FC) [17]: 1.8 | fold change (FC) [18]: 6.2 | Activity [19]: 63.2% | Activity [20]: 56.1% | Activity [21]: 87.8% | Activity [22]: inactive | Activity [23]: 297.8% | MIC [24]: > 128 µg/mL | Activity [25]: 173% | fold change (FC) [26]: 2.4 | Activity [27]: Active | fold change (FC) [28]: 1.7 | Activity [29]: inactive | Activity [30]: 69.4% | fold change (FC) [31]: 2.4 | Activity [32]: 284.3% | Activity [33]: 47.2% | Activity [34]: 172.2% | fold change (FC) [35]: 1.4 | Activity [36]: 7% | Activity [37]: 78.5% | Ratio [38]: 2.51 | MIC [39]: > 128 µg/mL | Activity [40]: 60.4% | Activity [41]: inactive | fold change (FC) [42]: 3.7 | fold change (FC) [43]: 2.4 | Activity [44]: 150.3% | fold change (FC) [45]: 4.5 | Ratio [46]: 1.02 | Activity [47]: 50.8% | Activity [48]: 55.7% | fold change (FC) [49]: 1.2
